Experimental data: patent US20200247897A1, “THERAPEUTIC ANTIBODIES BASED ON MUTATED IGG HEXAMERS” (GENMAB B.V., priority 2017, published 2020)

System: panel of 235 cell lines representing 14 tumor lineages
Experiment: ATPlite growth inhibition screening of a human cancer cell line panel (Horizon Discovery)
Format: cell-based
Procedure: A 72 hour ATPlite assay (except for DLD-1 and HCT116 cell lines, for which a 120 hour assay was performed) with growth inhibition analysis was performed in two parts at Horizon Discovery Ltd, UK. Samples were tested as four replicates in 384-well assay plates. Serial dilution series of antibody, starting from 0.072 μM final concentration was used for all tested cell lines. For TRAIL (Invitrogen; Cat # PHC1634) serial dilution series starting from 0.01 μM final concentration for the cell lines tested in the first part and 0.17 μM final concentration for the cell lines tested in the second part of the screening was used.

[1] = 59M, ovary cancer, screening #1
[2] = 769-P, kidney cancer, screening #2
[3] = 786-0, kidney cancer, screening #2
[4] = 5637, bladder cancer, screening #2
[5] = A172, neural tissue cancer, screening #2
[6] = ACHN, kidney cancer, screening #2
[7] = CAL-54, kidney cancer, screening #1
[8] = COLO-783, melanoma, screening #1
[9] = COR-L23-CPR, NSCLC, screening #1
[10] = COV434, ovary cancer, screening #1
[11] = COV644, ovary cancer, screening #1
[12] = G-402, kidney cancer, screening #2
[13] = HCC1937, breast cancer (TNBC), screening #2
[14] = HT-1197, bladder cancer, screening #2
[15] = HT-1376, bladder cancer, screening #2
[16] = Hs 294T, melanoma, screening #1
[17] = HuP-T3, pancreatic cancer, screening #1
[18] = J82, bladder cancer, screening #1
[19] = JHOM-1, ovary cancer, screening #1

## TRAIL: natural DR5 ligand, recombinant human TRAIL/APO-2L
[1]
  IC50: 0.049 nM
  Max Inhibition: 98.5%
[2]
  IC50: 1.94 nM
  Max Inhibition: 39.4%
[3]
  IC50: 288 nM
  Max Inhibition: 2.6%
[4]
  IC50: 0.06 nM
  Max Inhibition: 99.1%
[5]
  IC50: 0.029 nM
  Max Inhibition: 98.2%
A375, melanoma, screening #1
  Max Inhibition: 47.1%
A498, kidney cancer, screening #2
  IC50: 0.079 nM
A704, kidney cancer, screening #1
  IC50: 3.44 nM
[6]
  IC50: 0.356 nM
  Max Inhibition: 32.4%
BEN, NSCLC, screening #1
  Max Inhibition: 8.1%
BT-20, breast cancer (TNBC), screening #2
  IC50: 0.089 nM
BT-549, breast cancer (TNBC), screening #2
  IC50: 0.285 nM
BxPC-3, pancreatic cancer, screening #1
  Max Inhibition: 46.5%
CAKI-2, kidney cancer, screening #1
  Max Inhibition: 5.7%
CAL-12T, NSCLC, screening #1
  Max Inhibition: 11.9%
[7]
  IC50: 0.268 nM
  Max Inhibition: 71.6%
CAPAN-2, pancreatic cancer, screening #1
  Max Inhibition: 4.8%
CFPAC-1, pancreatic cancer, screening #1
  Max Inhibition: 13.2%
CL-11, colorectal cancer, screening #1
  IC50: 1.32 nM
CL-34, colorectal cancer, screening #1
  IC50: 0.024 nM
CL-40, colorectal cancer, screening #1
  IC50: 1.98 nM
COLO858, melanoma, screening #1
  Max Inhibition: 12.6%
COLO-201, colorectal cancer, screening #1
  IC50: 0.168 nM
COLO-205, colorectal cancer, screening #1
  IC50: 2.27 nM
COLO-206F, colorectal cancer, screening #1
  IC50: 0.146 nM
COLO-679, melanoma, screening #1
  Max Inhibition: 24.9%
COLO-699, NSCLC, screening #1
  Max Inhibition: 2.8%
[8]
  IC50: 0.224 nM
  Max Inhibition: 80.9%
COLO-800, melanoma, screening #1
  Max Inhibition: 33.5%
COLO-818, melanoma, screening #1
  Max Inhibition: 7.8%
COLO-849, melanoma, screening #1
  Max Inhibition: 17.6%
[9]
  IC50: 5.48 nM
  Max Inhibition: 58.4%
COR-L105, NSCLC, screening #1
  Max Inhibition: 35.7%
[10]
  IC50: 0.395 nM
  Max Inhibition: 73.1%
COV504, ovary cancer, screening #1
  Max Inhibition: 11.7%
[11]
  IC50: 0.271 nM
  Max Inhibition: 74.9%
Calu-1, NSCLC, screening #1
  Max Inhibition: 22.0%
DBTRG-05MG, neural tissue cancer, screening #2
  IC50: 0.087 nM
DLD-1, colorectal cancer, screening #1
  IC50: 3.95 nM
DLD-1_BRCA2 (−/−), colorectal cancer, screening #1
  IC50: 0.516 nM
DU-4475, breast cancer (TNBC), screening #2
  IC50: 0.079 nM
DV-90, NSCLC, screening #1
  IC50: 1.19 nM
  Max Inhibition: 96.1%
EPLC-272H, NSCLC, screening #1
  Max Inhibition: 51.7%
FTC-238, head and neck cancer, screening #1
  IC50: 3.92 nM
G-401, kidney cancer, screening #2
  IC50: 0.068 nM
[12]
  IC50: 0.173 nM
  Max Inhibition: 15.0%
GP2D, colorectal cancer, screening #1
  IC50: 0.003 nM
GSU, gastric cancer, screening #1
  IC50: 0.454 nM
H4, neural tissue cancer, screening #2
  IC50: 0.007 nM
HCC38, breast cancer (TNBC), screening #2
  IC50: 0.08 nM
HCC70, breast cancer (TNBC), screening #2
  IC50: 347 nM
HCC1187, breast cancer (TNBC), screening #2
  IC50: 0.066 nM
HCC1806, breast cancer (TNBC), screening #2
  IC50: 0.05 nM
[13]
  IC50: 0.647 nM
  Max Inhibition: 28.5%
HCT-15, colorectal cancer, screening #1
  IC50: 0.129 nM
HCT-116_ARID1A (Q456*/Q456*), colorectal cancer, screening #1
  IC50: 10.5 nM
HCT-116_KRAS (+/−), colorectal cancer, screening #1
  IC50: 0.253 nM
HCT-116_PIK3A (+/−)KO mt H1047R, colorectal cancer, screening #1
  IC50: 1.25 nM
HEC-108, endometrial cancer, screening #1
  IC50: 1.48 nM
HEC-265, endometrial cancer, screening #1
  IC50: 0.021 nM
HLC-1, NSCLC, screening #1
  Max Inhibition: 32.6%
HLE, liver cancer, screening #1
  IC50: 8.36 nM
HMC-1-8, breast cancer (TNBC), screening #2
  IC50: 0.232 nM
HMCB, melanoma, screening #1
  Max Inhibition: 1.0%
HOP-62, NSCLC, screening #1
  Max Inhibition: 55.6%
HPAF-II, pancreatic cancer, screening #1
  Max Inhibition: 13.3%
HRT-186, colorectal cancer, screening #1
  IC50: 9.24 nM
HT55, colorectal cancer, screening #1
  IC50: 0.11 nM
HT-115, colorectal cancer, screening #1
  IC50: 0.107 nM
[14]
  IC50: 0.167 nM
  Max Inhibition: 31.8%
[15]
  IC50: 160 nM
  Max Inhibition: 10.6%
[16]
  IC50: 0.019 nM
  Max Inhibition: 91.1%
Hs 936.T, melanoma, screening #1
  Max Inhibition: 20.7%
[17]
  IC50: 0.223 nM
  Max Inhibition: 88.4%
IGR-1, melanoma, screening #1
  Max Inhibition: 23.3%
IGR-37, melanoma, screening #1
  Max Inhibition: 18.0%
IGR-39, melanoma, screening #1
  Max Inhibition: 20.1%
IPC-298, melanoma, screening #1
  Max Inhibition: 5.7%
[18]
  IC50: 33.6 nM
  Max Inhibition: 11.5%
JHOC-5, ovary cancer, screening #1
  Max Inhibition: 18.4%
[19]
  IC50: 0.596 nM
  Max Inhibition: 58.1%
JHOM-2B, ovary cancer, screening #1
  Max Inhibition: 21.7%
JHOS-4, ovary cancer, screening #1
  Max Inhibition: 12.5%
JHUEM-2, endometrial cancer, screening #1
  IC50: 0.165 nM
KLM-1, pancreatic cancer, screening #1
  Max Inhibition: 12.7%
KNS-81, neural tissue cancer, screening #2
  IC50: 0.013 nM
KP-2, pancreatic cancer, screening #1
  Max Inhibition: 3.9%
KP-3, pancreatic cancer, screening #1
  Max Inhibition: 23.5%
KP-4, pancreatic cancer, screening #1
  Max Inhibition: 23.6%
